The test system of one data set is rodents. To be noted: oral; cited from earlier work.
For another data set, the system named is humans. As to conditions: based on intravenous infusion studies; cited from earlier work.
In a further data set the test system is philtrum skin. The experiment in a line: philtrum skin cooling bioassay. The class given is in vivo, human. As to conditions: for cooling activity AUC in (R)-1,2-propanediol / cooling activity AUC in racemic-1,2-propanediol: ± S.E.M.; for cooling effect: applied to the philtrum. The source says: The term “alcoholic solvent” refers to a chemical with one to four carbons with at least one hydroxyl group attached to a carbon atom. A reliable place for topical application is the skin above the upper lip (above the vermilion border of the lips), on the philtrum, lateral to the philtrum until the nasolabial folds, and on the lower nostrils (subnasale). This part of the face is known to be densely innervated with cold receptors, second only to the surfaces of the eyeball and anogenitalia. Tingling, cool and cold sensations from the skin may be experienced and rated for time of onset and intensity.
The intervals for recording sensations are 5 to 10 minutes, until two successive zeroes are obtained. The results (shown in the Figures) are averaged values of 4 to 6 separate trials in the same individual. The data are plotted using SigmaPlot (Systat Software, Point Richmond Calif.) and a smoothing function with a negative exponential was used for analysis and statistical fit of the results. The onset of drug action is taken as the time to reach 2 units of coolness intensity, and offset of drug action is the time when coolness intensity drops below 2, after previously surpassing 2 units. The duration of cooling action is defined as the offset time minus the onset time and the primary index of effect. […]
Using a cotton-tipped applicator (e.g. Q-tips®) 0.10 to 0.25 ml of the test solution was applied to the skin above the upper lip, on the philtrum, and lateral to the philtrum up to the nasolabial folds, and the onset and duration of cooling sensations noted. […] The interval for recording sensations was at 5 to 10 minute intervals, until at least two successive zeroes were obtained. The results were averaged values of 3 to 6 separate trials in the same individual. The “onset” is the time taken to reach a coolness intensity value of 2. […] The “off-set” is when the coolness intensity drops below 2, and the duration is the time of off-set minus the time of onset. The area under the curve (AUC) also gives an estimate of the intensity and duration of drug action and can be obtained from the plotted data using SigmaPlot (Systat Software, Point Richmond Calif.). The AUC is given in average ±S.E.M. units which is the product of cooling intensity×min.

The next data set relates to tongue. To be noted: average for 6 subjects, filter paper on dorsal tongue, 30 seconds; cited from earlier work.
A further data set is described as follows: solubility in solvents. It is filed as physicochemical. To be noted: organic solvent or mixture. The protocol: Many cooling agents are more soluble in ethanol than in 1,2-propanediol. For example, W-3 and CPS-369 are soluble in absolute ethanol at >300 mg/ml and >500 mg/ml, respectively. These compounds are less soluble in 1,2-propanediol, with solubilities of about 10 mg/ml at standard conditions. To formulate liquid compositions of cooling agents, it is convenient to use up to 5% of ethanol in the total volume to dissolve the cooling agent and then add the rest as (R)-1,2-propanediol to complete the formulation without significant loss of cooling actions.

Data set [1] has as its system itch (contact dermatitis) on the scalp. The data set is described as follows: scalp itch (contact dermatitis) case, topical application. The class given is in vivo, human. To be noted: for sensations of coolness after application to scalp: 5 mg/ml in 1% ethanol-99% (R)-1,2-propanediol, droplet delivery; for itch after two days of applications: applications spaced approximately 10 hours apart, scalp. As for the experimental part:
An individual developed intense itch (contact dermatitis) on the scalp at the base of the skull after use of hair dye. A cotton-tipped stick was used to apply CPS-410 or CPS-412, 5 mg/ml dissolved in a 1% ethanol-99% (R)-1,2-propanediol, to the site of itch. The itch sensations were suppressed within 5 min of application of either solution and this effect lasted for at least 8 hr. In a second experiment, the solutions were applied using a plastic bottle with a conical Yorker spout. This allowed more precise droplet delivery of the solution to the site of itch. […] The advantage of liquid formulation is the ease of uniform delivery to the inflamed site, a method not achievable with cream or ointment. Itch symptoms of hair and fur occur in seborrheic dermatitis, psoriasis, insect bites, canine pruritus, and allergic dermatitis. Liquid formulations containing (R)-1,2-propanediol and a cooling agent may be therapeutically valuable in these conditions.

In another data set the target is TRP-M8 receptor (Homo sapiens, UniProt Q7Z2W7). As to conditions: cited from earlier work.
TRP-M8 receptor, sequence (Q7Z2W7 whole entry): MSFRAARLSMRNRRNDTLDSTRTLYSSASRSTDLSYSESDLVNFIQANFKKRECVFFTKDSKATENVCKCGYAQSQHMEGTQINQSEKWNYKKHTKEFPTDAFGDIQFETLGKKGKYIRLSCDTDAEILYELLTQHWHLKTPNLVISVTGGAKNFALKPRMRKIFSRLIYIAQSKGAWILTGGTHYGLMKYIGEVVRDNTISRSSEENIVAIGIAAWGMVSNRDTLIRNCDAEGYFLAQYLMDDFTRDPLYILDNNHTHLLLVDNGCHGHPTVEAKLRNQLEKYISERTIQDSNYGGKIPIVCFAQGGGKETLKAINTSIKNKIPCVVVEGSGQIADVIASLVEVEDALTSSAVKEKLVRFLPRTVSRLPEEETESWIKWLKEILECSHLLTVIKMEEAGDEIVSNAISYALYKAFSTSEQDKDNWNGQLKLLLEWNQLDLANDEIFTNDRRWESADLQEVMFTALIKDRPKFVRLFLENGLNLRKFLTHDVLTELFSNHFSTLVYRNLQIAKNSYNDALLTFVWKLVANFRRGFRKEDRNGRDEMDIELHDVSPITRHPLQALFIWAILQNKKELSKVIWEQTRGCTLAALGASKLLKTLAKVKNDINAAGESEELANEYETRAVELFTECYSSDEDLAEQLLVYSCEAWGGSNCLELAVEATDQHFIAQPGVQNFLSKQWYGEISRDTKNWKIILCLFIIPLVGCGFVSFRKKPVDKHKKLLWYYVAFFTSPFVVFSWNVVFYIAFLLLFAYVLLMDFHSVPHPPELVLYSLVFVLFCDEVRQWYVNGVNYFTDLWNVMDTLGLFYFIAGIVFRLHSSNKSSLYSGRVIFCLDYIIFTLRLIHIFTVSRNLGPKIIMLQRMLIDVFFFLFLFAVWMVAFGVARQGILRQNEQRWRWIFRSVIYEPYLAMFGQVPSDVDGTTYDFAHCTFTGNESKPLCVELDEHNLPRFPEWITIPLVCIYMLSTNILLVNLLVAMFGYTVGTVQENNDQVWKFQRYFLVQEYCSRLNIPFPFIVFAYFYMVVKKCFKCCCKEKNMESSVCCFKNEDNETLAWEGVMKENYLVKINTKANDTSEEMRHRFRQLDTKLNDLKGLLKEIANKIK
The test system of data set [2] is axillary skin lesion of plaque psoriasis. The experiment in a line: plaque psoriasis case, axillary skin lesion itch and burning. The class given is in vivo, human. As to conditions: same patient, subsequent treatment. The source says: A person with an 8-year history of plaque psoriasis complained of an axillary skin lesion that itched, had burning sensations, and kept them awake at night. Their condition was severe and chronic. Their parent complained that they had to vacuum their bedroom every day in order to remove flaking skin debris. […] They volunteered to try CPS-148, 2% dissolved in 1% ethanol-99% (R)-1,2-propanediol, and was given instructions on how to apply the solution to their site of itch with a swab stick (Q-tip™). They claimed after the first time of application at night the burning sensations and itch disappeared within 5 to 10 min and they were able to have a good night's sleep. They continued to use the solution on an “as-needed basis” for one month and claimed that they slept much better than before.

The mark [3] stands for this setting: CPS-369 at 10 mg/ml dissolved in the named solvent, applied to philtrum skin, based on AUC, inactive = coolness intensity did not exceed 2 units.
Where [4] appears, read: 5 mg/ml, (R)-1,2-propanediol with 1% ethanol vol/vol, philtrum.
[5] abbreviates: 5 mg/ml, racemic 1,2-propanediol with 1% ethanol vol/vol, philtrum.
[6] abbreviates: absolute ethanol, read-out: solubility in absolute ethanol.
Setting [7] is: 1,2-propanediol, standard conditions, read-out: solubility in 1,2-propanediol.

In brackets after ≈: the same amount, converted by molar mass. Entries after “also recorded” stand apart in the source; their conditions may differ. Where two headings read alike, the source gives them in different places. Where only a bound is given, the exact number is not on record here.

Turning to `CC(O)CO` (racemic) [racemic 1,2-propanediol, 1,2-propanediol], the median lethal dose result in the data set with rodents is on record as “about 25 ml/kg of body weight”. Also, the “estimated “safe” dose” value in the data set with humans is on record as 1 g per kg body weight per day.

`CC(O)CCO` (racemic) [racemic 1,3-butanediol, 1,3-butanediol]: the “Cooling Activity % (relative to (R)-1,2-propanediol)” value in the data set on philtrum skin (setting [3]) is 10%; in the data set with philtrum skin (in vivo), “significant loss of cooling activity”.

With `CC1CCC(C(C)C)C(O)C1` (single isomer, unassigned; (-)) [(−)-menthol], the “Threshold (amount producing cooling sensations on the tongue), average” value in the data set on tongue is 0.25 µg.

For `OCCCO` [1,3-propanediol], the “Cooling Activity % (relative to (R)-1,2-propanediol)” value with philtrum skin (setting [3]) is “significant loss of cooling activity; also recorded: inactive”.

In the case of `C[C@H](O)CO` [(S)-1,2-propanediol], the “Cooling Activity % (relative to (R)-1,2-propanediol)” value in the data set on philtrum skin (setting [3]) stood at 47%.

For `CCCCCCP(=O)(C(C)CC)C(C)CC` (stereo not drawn) [CPS-147, 1-(Di-sec-butyl-phosphinoyl)-hexane], in the data set with philtrum skin (3 mg/ml, (R)-1,2-propanediol with 2% ethanol vol/vol, philtrum), the “cooling activity AUC in (R)-1,2-propanediol” value is 81 ± 4 cooling intensity × min. In addition, in the data set with philtrum skin (3 mg/ml, racemic 1,2-propanediol with 2% ethanol vol/vol, philtrum), the “cooling activity AUC in racemic-1,2-propanediol” value is 64 ± 4 cooling intensity × min.

For the molecule `CCCCCCCP(=O)(C(C)CC)C(C)CC` (stereo not drawn) [CPS-148, 1-(Di-sec-butyl-phosphinoyl)-heptane], in the data set on philtrum skin (2 mg/ml, (R)-1,2-propanediol with 1% ethanol vol/vol, philtrum), the “cooling activity AUC in (R)-1,2-propanediol” value came out at 173 ± 15 cooling intensity × min. Besides, in the data set on philtrum skin (2 mg/ml, racemic 1,2-propanediol with 1% ethanol vol/vol, philtrum), the “cooling activity AUC in racemic-1,2-propanediol” value stood at 75 ± 6 cooling intensity × min.

Usually solubility stands for how much of the substance goes into solution per volume. For the molecule `CCOC(=O)[C@@H](C)NC(=O)[C@@H]1C[C@H](C)CC[C@H]1C(C)C` [CPS-369, (R)-2-[((1R,2S,5R)-2-isopropyl-5-methyl-cyclohexanecarbonyl)-amino]-propionic acid ethyl ester], the “cooling activity AUC in (R)-1,2-propanediol” value with philtrum skin (setting [4]) is 218 ± 12 cooling intensity × min. Besides, the “cooling activity AUC in racemic-1,2-propanediol” value with philtrum skin (setting [5]) is reported as 134 ± 16 cooling intensity × min. Besides, the solubility was more than 500000 µg/mL in “solubility in solvents” (setting [6]) and approximately 10000 µg/mL (≈ 35.3 mM) in the data set “solubility in solvents” (setting [7]).

As to `CCCOC(=O)[C@@H](C)NC(=O)[C@@H]1C[C@H](C)CC[C@H]1C(C)C` [CPS-410, (R)-2-[((1R,2S,5R)-2-isopropyl-5-methyl-cyclohexanecarbonyl)-amino]-propionic acid n-propyl ester], the “cooling activity AUC in (R)-1,2-propanediol” value with philtrum skin (setting [4]) is listed as 281 ± 7 cooling intensity × min. In addition, in the data set with philtrum skin (setting [5]), the “cooling activity AUC in racemic-1,2-propanediol” value is listed as 122 ± 12 cooling intensity × min. Also, in data set [1], the “sensations of coolness after application to scalp” value was “produced sensations of coolness” and the “itch after two days of applications” value is reported as “no longer present”.

As to `CCCCOC(=O)[C@@H](C)NC(=O)[C@@H]1C[C@H](C)CC[C@H]1C(C)C` [CPS-412, (R)-2-[((1R,2S,5R)-2-isopropyl-5-methyl-cyclohexanecarbonyl)-amino]-propionic acid n-butyl ester], the “cooling activity AUC in (R)-1,2-propanediol” value in the data set on philtrum skin (setting [4]) stood at 243 ± 5 cooling intensity × min. In addition, the “cooling activity AUC in racemic-1,2-propanediol” value in the data set with philtrum skin (setting [5]) is reported as 127 ± 10 cooling intensity × min. Also, in data set [1], the “sensations of coolness after application to scalp” value was “less noticeable” and the “itch after two days of applications” value is reported as “no longer present”.

`C[S+](C)[O-]` [Dimethylsulfoxide]: the “in vitro inhibition of TRP-M8 response relative to alcohols” value at TRP-M8 receptor (Benedikt et al. 2007) is recorded as “less inhibitory”.

For the molecule `CCNC(=O)C1CC(C)CCC1C(C)C` (stereo not drawn) [WS-3, 2-Isopropyl-5-methyl-cyclohexanecarboxylic acid ethylamide], the cooling effect entry in the data set on philtrum skin (20 mg/ml in absolute ethanol) was “did not produce significant cooling”. The “cooling activity AUC in (R)-1,2-propanediol” value in the data set with philtrum skin (20 mg/ml, (R)-1,2-propanediol with 3% ethanol vol/vol, philtrum) turned out to be 122 ± 8 cooling intensity × min. Further, in the data set on philtrum skin (20 mg/ml, racemic 1,2-propanediol with 3% ethanol vol/vol, philtrum), the “cooling activity AUC in racemic-1,2-propanediol” value was found to be 64 ± 6 cooling intensity × min. Besides, the solubility in “solubility in solvents” (setting [6]) was more than 300000 µg/mL; in the data set “solubility in solvents” (setting [7]), approximately 10000 µg/mL (≈ 47.3 mM).

Turning to `CCOC(=O)CNC(=O)[C@@H]1C[C@H](C)CC[C@H]1C(C)C` [WS-5, [((1R,2S,5R)-2-isopropyl-5-methyl-cyclohexanecarbonyl)-amino]-acetic acid ethyl ester], the cooling effect result in the data set with philtrum skin (10 mg/ml in 100% ethanol) is reported as “did not produce any cooling effect”.

Take `CCO` [ethanol]: the “Cooling Activity % (relative to (R)-1,2-propanediol)” value in the data set with philtrum skin (setting [3]) is “loss of cooling activity; also recorded: inactive”. On TRP-M8 receptor (3% concentration of ethanol), the “TRP-M8 receptor response to (−)-menthol” value was “almost totally lost”.

On to `CC(C)O` [isopropanol], for which the “Cooling Activity % (relative to (R)-1,2-propanediol)” value with philtrum skin (setting [3]) was “loss of cooling activity; also recorded: inactive”.

For (R)-1,2-propanediol, the “reversal of ethanol inhibition of WS-5 cooling” value in the data set with philtrum skin (added at 10%, 20% and 40% vol/vol to ethanolic solution of WS-5 10 mg/ml, philtrum) is recorded as “reversed the ethanol inhibition in a dose-dependent relationship”.

Enbrel®: in data set [2], the “psoriatic condition after a course of treatment” value is “improved considerably”.

With n-propanol, the “Cooling Activity % (relative to (R)-1,2-propanediol)” value with philtrum skin (setting [3]) was “loss of cooling activity; also recorded: inactive”.

(Values after patent US8529915B2, “(R)-(-)-1,2-propanediol compositions and methods” (priority 2010, dated 2013).)
